Peptide text beside a SMILES is read from it. * marks the point of attachment. Cbz = O=C(OCc1ccccc1)*
Assays:
DLK [1] = experiment: Western blot for DLK in unstressed embryonic DRG neurons cultured with NGF, treated for three hours; type: cell-based, mouse; conditions: DRGs +NGF, 3 hours; OA 200 nM, MG132 30 μM
Experimental: (§1) Dorsal root ganglia were dissected from E12.5 to E13.5 mouse embryos, trypsinized (except in the case of explants), and cultured in F12 medium containing N3 supplement, 40 mM glucose, and 25 ng/mL NGF on chamber slides coated with poly-d-lysine and laminin (BioCoat, BD). The day after plating, 3 μM arabinofuranoside (AraC, Sigma) was added to the medium, removed two days later, and the medium was replaced with N3/F12/NGF without AraC. For NGF withdrawal experiments, after 4 to 5 days in vitro, medium was replaced with medium containing no NGF and 25 μg/mL anti-NGF antibody (Genentech) for between 1 and 3 hours.
DRG cultures were lysed by incubation on ice for 30 min. in buffer containing 50 mM Tris pH 7.5, 150 mM NaCl, 5 mM EDTA, and 0.1% Triton X-100. HEK 293T cells were lysed by incubation on ice for 30 min. in radioimmunoprecipitation assay (RIPA) buffer. Retina and nerve tissue samples were lysed in RIPA buffer using a TissueLyser (Qiagen) with a 3 mm tungsten carbide bead (Qiagen) for 6 min. Unless otherwise noted, all lysis solutions contained Complete protease inhibitor cocktail and PhosSTOP phosphatase inhibitor cocktail (Roche). Protein concentrations of 293T and retina lysates were determined by BCA assay (Pierce). Samples were loaded on NuPAGE 4-12% Bis-Tris gels (Invitrogen) and subjected to standard immunoblotting procedures. Except where noted, gels blotted for DLK were run in MOPS buffer (Invitrogen). Due to the large size of Phr1, samples blotted for Phr1 were run on 3-8% Tris-Acetate gels (Invitrogen). Blots were visualized with chemiluminescence and exposure to film. For relative protein expression and molecular weight quantifications, blots were also visualized on a Chemidoc (Bio-Rad). Quantifications were performed in ImageLab (Bio-Rad). Protein expression was standardized to a loading control (actin or tubulin). Molecular weight was standardized to Precision Plus Protein WesternC Standards (Bio-Rad).

murine DLK = experiment: SILAC mass spectrometry of DLK phosphorylation sites in 293T cells expressing Flag-tagged DLK; type: cell-based, mouse; conditions: WT DLK, okadaic acid 200 nM
Experimental: To identify functionally relevant phosphorylation sites on DLK, mass spectrometry in conjunction with stable isotope labeling by amino acids in cell culture (SILAC) was used. For these studies, 293T cells expressing FLAG-tagged DLK were cultured in SILAC media containing isotopically enriched (Heavy) versions of lysine (^13C6^15N2) and arginine (^13C6^15N4) or their unlabeled counterparts (Light). Four paired conditions (Light vs. Heavy) were established to dissect the effects of JNK and DLK activities on the overall abundance of DLK and the extent of DLK phosphorylation: 1) Wild-type (WT) DLK vs. DLK^S302A, 2) DLK^S302A vs. DLK^S302A co-expressed with a constitutively active JNK construct (Lei, K. et al. Molecular and cellular biology 22, 4929-4942 (2002)), 3) WT DLK vs. WT DLK with JNK inhibitor, and 4) WT DLK vs. WT DLK with okadaic acid (FIG. 5a).

DLK [2] = experiment: JNK3 siRNA knockdown in JNK2 knockout DRGs with NGF withdrawal, blot for DLK; type: cell-based, mouse; conditions: JNK2 KO embryonic DRGs, compared to control siRNA
Experimental: as §1
For siRNA experiments, dissociated DRGs were transfected using the Amaxa nucleofection system (Lonza). JNK3 siRNA (sense 5′-ACATCGTAGTCAAGTCTGATTT-3′ (SEQ ID NO:10), antisense 5′-ATCAGACTTGACTACGATGTTT (SEQ ID NO:11)) was synthesized at Genentech (Kim, M. J. et al. Neuron 56, 488-502 (2007)). Control siRNA was ON-TARGETplus Non-targeting siRNA #1 from Dharmacon.
DRG cultures were lysed by incubation on ice for 30 min. in buffer containing 50 mM Tris pH 7.5, 150 mM NaCl, 5 mM EDTA, and 0.1% Triton X-100. […] Protein concentrations of 293T and retina lysates were determined by BCA assay (Pierce). […] For relative protein expression and molecular weight quantifications, blots were also visualized on a Chemidoc (Bio-Rad). Quantifications were performed in ImageLab (Bio-Rad). […]

DLK [3] = experiment: DLK expression in stable cell line with dox-inducible DLK construct treated with JNK inhibitors; type: cell-based; conditions: inhibitors at 10 μM
Experimental: HEK 293T cells were lysed by incubation on ice for 30 min. in radioimmunoprecipitation assay (RIPA) buffer. […] Unless otherwise noted, all lysis solutions contained Complete protease inhibitor cocktail and PhosSTOP phosphatase inhibitor cocktail (Roche). Protein concentrations of 293T and retina lysates were determined by BCA assay (Pierce). Samples were loaded on NuPAGE 4-12% Bis-Tris gels (Invitrogen) and subjected to standard immunoblotting procedures. Except where noted, gels blotted for DLK were run in MOPS buffer (Invitrogen). […] Blots were visualized with chemiluminescence and exposure to film. For relative protein expression and molecular weight quantifications, blots were also visualized on a Chemidoc (Bio-Rad). Quantifications were performed in ImageLab (Bio-Rad). Protein expression was standardized to a loading control (actin or tubulin). Molecular weight was standardized to Precision Plus Protein WesternC Standards (Bio-Rad).
A stable cell line that expressed DLK in a doxicyclin-inducible fashion was used and cells were treated with two structurally distinct JNK inhibitors (FIG. 4c).

Row | Compound | apparent molecular weight / phosphorylation of DLK (DLK [1]) | total levels of DLK protein (DLK [1]) | fold change in phosphorylation of T43, okadaic-acid-treated vs untreated cells expressing DLK (murine DLK) [fold] | increase in DLK quantity with NGF withdrawal (DLK [2]) | DLK expression (levels of DLK protein) (DLK [3])
1 | CC(C)C[C@@H](C=O)NC(=O)[C@H](CC(C)C)NC(=O)[C@H](CC(C)C)NC(=O)OCc1ccccc1 [MG132] (Cbz-Leu-Leu-Leu-aldehyde) | without an increase in DLK phosphorylation | produced an increase in DLK levels | – | – | –
2 | C=C1[C@@H](O)[C@@H]2O[C@]3(CC[C@H](/C=C/[C@@H](C)[C@@H]4CC(C)=C[C@@]5(O[C@H](C[C@@](C)(O)C(=O)O)CC[C@H]5O)O4)O3)CC[C@H]2O[C@@H]1[C@@H](O)C[C@H](C)[C@H]1O[C@@]2(CCCCO2)CC[C@H]1C [okadaic acid] | sufficient to increase both the apparent molecular weight and total levels of DLK | sufficient to increase both the apparent molecular weight and total levels of DLK | 7.78 | – | –
3 | JNK3 siRNA: siRNA, sense 5′-ACATCGTAGTCAAGTCTGATTT-3′ (SEQ ID NO:10), antisense SEQ ID NO:11, synthesized at Genentech (sense ACATCGTAGTCAAGTCTGATTT; antisense ATCAGACTTGACTACGATGTTT; listed as DNA, chemistry not given here) | – | – | – | attenuated the increase in DLK | –
4 | JNK Inhibitor VII (TAT-TI-JIP153-163) [JNK7] | – | – | – | – | reduces DLK expression

From patent US20150361184A1, “METHODS OF MODULATING DLK STABILITY” (GENENTECH, INC., priority 2013, published 2015)
